From patent US12448395B2 (BRISTOL-MYERS SQUIBB COMPANY, priority 2019, dated 2025)
Counter-ions that a name gives are not always drawn.

How the values were obtained:
[1] = molecular target: T1, TLR7 (Mus musculus, UniProt P58681); test: In vivo mouse TLR7 PD model (gardiquimod-induced plasma IL-6 and IFN-alpha); conditions: C57BL/6 mice, 90 min after gardiquimod
T1 sequence (P58681 27-1050): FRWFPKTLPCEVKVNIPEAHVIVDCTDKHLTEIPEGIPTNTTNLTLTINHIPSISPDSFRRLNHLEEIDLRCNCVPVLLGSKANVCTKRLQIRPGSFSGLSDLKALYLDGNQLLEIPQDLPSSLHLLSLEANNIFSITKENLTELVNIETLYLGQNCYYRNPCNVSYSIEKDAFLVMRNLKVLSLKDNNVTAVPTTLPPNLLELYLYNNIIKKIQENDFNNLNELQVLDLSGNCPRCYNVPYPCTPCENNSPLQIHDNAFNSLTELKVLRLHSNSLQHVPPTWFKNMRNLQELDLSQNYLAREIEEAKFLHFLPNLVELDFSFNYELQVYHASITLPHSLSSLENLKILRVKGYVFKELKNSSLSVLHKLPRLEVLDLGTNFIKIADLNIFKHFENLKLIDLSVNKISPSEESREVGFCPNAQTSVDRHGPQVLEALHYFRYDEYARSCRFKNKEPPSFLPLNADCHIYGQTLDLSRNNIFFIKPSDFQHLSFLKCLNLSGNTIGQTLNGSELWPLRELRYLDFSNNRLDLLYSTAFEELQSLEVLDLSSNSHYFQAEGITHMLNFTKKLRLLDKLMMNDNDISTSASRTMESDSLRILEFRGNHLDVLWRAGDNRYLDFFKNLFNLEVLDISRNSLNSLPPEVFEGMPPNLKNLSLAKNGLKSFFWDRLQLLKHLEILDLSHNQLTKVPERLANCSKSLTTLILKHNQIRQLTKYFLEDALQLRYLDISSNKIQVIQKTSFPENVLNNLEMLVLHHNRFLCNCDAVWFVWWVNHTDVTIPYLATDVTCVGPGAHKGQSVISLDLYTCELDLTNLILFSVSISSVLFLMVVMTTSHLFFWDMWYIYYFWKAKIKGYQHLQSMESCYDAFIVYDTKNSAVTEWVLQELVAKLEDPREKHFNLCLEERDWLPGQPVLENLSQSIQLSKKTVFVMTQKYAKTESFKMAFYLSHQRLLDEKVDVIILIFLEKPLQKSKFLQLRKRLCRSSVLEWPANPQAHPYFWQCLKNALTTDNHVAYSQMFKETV
Protocol: In Vivo Mouse TLR7 PD Model:
Adult male C57BL/6 mice were used for the experiments. Mice (7 to 10 per group) were randomized into different treatment groups based on body weight. Mice from the respective treatment groups were administered orally with vehicle or test compound. Thirty min after the oral administration of vehicle or test compound, mice were challenged with intraperitoneal injection of gardiquimod for TLR7 PD model. Ninety minutes after gardiquimod injection, mice were bled under isoflurane anaesthesia and plasma IL-6 and IFN-alpha levels were estimated by using commercially available ELISA kit (BD Biosciences, PBL Life Sciences). At the end of experiment, mean cytokine data was plotted and one way ANOVA with Dunnett's test was performed to calculate the significance of test compound treated group vs. vehicle control group. Percent inhibition of cytokine induction was calculated for test compound treated group vs vehicle control group.

[2] = molecular target: T2, human TLR8 (Homo sapiens, UniProt Q9NR97); test: TLR8 inhibition reporter assay (HEK-Blue SEAP, R848 stimulation); assay type: cell-based; conditions: HEK-Blue cells overexpressing human TLR8, R848 15.9 μM
T2 sequence (Q9NR97 27-1041): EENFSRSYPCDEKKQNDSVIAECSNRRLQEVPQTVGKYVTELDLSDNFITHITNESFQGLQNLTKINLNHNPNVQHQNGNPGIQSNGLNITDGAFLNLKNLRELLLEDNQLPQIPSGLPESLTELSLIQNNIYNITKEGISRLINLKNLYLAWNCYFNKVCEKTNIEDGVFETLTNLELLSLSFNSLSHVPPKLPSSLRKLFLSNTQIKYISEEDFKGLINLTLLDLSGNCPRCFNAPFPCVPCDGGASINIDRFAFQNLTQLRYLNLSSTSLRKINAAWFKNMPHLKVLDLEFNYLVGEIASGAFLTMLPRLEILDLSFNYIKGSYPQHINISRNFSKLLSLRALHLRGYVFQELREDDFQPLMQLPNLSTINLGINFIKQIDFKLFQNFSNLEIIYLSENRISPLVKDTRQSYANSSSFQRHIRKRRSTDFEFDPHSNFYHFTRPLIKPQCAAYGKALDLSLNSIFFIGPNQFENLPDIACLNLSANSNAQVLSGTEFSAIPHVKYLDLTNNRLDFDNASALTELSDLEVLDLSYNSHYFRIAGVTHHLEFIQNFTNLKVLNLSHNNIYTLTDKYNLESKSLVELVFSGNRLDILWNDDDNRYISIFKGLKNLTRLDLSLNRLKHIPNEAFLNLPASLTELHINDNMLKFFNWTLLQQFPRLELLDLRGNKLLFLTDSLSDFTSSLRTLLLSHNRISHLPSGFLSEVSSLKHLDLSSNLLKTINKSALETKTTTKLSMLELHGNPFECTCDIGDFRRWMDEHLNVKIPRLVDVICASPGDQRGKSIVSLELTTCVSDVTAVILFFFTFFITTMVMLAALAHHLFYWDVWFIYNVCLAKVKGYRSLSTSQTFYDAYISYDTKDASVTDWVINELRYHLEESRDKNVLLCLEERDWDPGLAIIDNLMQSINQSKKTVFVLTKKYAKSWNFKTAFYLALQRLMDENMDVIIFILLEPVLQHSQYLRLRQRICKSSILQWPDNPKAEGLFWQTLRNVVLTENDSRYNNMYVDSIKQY
Protocol: (§1) TLR7/8/9 Inhibition Reporter Assays
(§2) HEK-Blue™-cells (Invivogen) overexpressing human TLR7, TLR8 or TLR9 receptors were used for screening inhibitors of these receptors using an inducible SEAP (secreted embryonic alkaline phosphatase) reporter gene under the control of the IFN-β minimal promoter fused to five NF-κB and AP-1-binding sites. Briefly, cells are seeded into Greiner 384 well plates (15000 cells per well for TLR7, 20,000 for TLR8 and 25,000 for TLR9) and then treated with test compounds in DMSO to yield a final dose response concentration range of 0.05 nM-50 μM. After a 30 minute compound pre-treatment at room temperature, the cells are then stimulated with a TLR7 ligand (gardiquimod at a final concentration of 7.5 μM), TLR8 ligand (R848 at a final concentration of 15.9 μM) or TLR9 ligand (ODN2006 at a final concentration of 5 nM) to activate NF-κB and AP-1 which induce the production of SEAP. After a 22 hour incubation at 37° C., 5% CO2, SEAP levels are determined with the addition of HEK-Blue™ Detection reagent (Invivogen), a cell culture medium that allows for detection of SEAP, according to manufacturer's specifications. The percent inhibition is determined as the % reduction in the HEK-Blue signal present in wells treated with agonist plus DMSO alone compared to wells treated with a known inhibitor.

[3] = molecular target: T3, human TLR7 (Homo sapiens, UniProt Q9NYK1); test: TLR7 inhibition reporter assay (HEK-Blue SEAP, gardiquimod stimulation); assay type: cell-based; conditions: HEK-Blue cells overexpressing human TLR7, gardiquimod 7.5 μM
T3 sequence (Q9NYK1 27-1049): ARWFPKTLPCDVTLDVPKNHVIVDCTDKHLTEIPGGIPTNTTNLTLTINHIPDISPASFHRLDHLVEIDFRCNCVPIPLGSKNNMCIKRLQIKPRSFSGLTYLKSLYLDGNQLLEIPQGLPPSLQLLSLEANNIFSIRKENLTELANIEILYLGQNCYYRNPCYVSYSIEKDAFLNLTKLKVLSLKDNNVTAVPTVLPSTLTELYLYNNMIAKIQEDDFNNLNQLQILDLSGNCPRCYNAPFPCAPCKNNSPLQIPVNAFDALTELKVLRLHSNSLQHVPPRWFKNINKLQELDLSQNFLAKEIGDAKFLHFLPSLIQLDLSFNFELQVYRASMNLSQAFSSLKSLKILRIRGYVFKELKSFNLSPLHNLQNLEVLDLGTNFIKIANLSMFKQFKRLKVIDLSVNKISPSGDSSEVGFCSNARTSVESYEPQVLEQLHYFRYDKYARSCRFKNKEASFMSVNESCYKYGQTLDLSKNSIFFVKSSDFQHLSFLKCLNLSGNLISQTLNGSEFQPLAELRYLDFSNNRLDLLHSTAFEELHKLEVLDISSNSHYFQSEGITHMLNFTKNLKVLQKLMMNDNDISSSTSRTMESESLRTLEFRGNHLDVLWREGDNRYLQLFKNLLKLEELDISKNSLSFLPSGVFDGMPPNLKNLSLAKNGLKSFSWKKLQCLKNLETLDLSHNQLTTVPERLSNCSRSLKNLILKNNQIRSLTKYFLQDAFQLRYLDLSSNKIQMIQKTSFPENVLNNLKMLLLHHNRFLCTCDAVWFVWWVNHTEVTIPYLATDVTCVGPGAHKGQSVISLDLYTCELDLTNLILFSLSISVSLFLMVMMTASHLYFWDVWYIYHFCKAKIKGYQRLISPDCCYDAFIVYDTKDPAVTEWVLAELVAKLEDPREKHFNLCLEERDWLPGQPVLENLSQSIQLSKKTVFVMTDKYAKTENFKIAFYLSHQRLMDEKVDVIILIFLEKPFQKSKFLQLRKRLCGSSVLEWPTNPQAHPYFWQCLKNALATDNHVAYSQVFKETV
Protocol: as §1, §2

[4] = molecular target: T4, human TLR9 (Homo sapiens, UniProt Q9NR96); test: TLR9 inhibition reporter assay (HEK-Blue SEAP, ODN2006 stimulation); assay type: cell-based; conditions: HEK-Blue cells overexpressing human TLR9, ODN2006 5 nM
T4 sequence (Q9NR96 26-1032): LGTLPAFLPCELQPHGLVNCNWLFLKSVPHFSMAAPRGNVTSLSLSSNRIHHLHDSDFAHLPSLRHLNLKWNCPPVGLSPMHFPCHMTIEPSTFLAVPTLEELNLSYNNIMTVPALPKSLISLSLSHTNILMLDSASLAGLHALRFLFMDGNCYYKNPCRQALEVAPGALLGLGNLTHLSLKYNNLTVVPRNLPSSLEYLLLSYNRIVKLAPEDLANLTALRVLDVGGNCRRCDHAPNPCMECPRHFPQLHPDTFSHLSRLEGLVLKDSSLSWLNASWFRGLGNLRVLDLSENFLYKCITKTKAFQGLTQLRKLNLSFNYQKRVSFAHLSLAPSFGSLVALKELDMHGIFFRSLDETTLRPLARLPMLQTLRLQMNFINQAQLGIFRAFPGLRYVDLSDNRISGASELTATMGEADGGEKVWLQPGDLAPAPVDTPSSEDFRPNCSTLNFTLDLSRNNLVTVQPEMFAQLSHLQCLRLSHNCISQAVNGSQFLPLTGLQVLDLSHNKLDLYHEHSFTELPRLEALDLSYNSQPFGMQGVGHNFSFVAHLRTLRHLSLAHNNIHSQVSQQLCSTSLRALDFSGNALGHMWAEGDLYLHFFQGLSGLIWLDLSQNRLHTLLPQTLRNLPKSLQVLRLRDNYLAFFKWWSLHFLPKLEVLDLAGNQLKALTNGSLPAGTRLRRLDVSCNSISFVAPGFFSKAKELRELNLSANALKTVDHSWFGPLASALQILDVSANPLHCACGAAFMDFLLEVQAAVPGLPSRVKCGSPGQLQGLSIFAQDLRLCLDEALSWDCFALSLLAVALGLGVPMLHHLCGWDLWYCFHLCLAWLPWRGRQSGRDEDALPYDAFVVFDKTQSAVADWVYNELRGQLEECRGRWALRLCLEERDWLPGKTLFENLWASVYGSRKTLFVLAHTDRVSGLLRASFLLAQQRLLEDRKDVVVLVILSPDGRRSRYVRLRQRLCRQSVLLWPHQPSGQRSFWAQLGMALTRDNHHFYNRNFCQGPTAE
Summary of the method: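 Agonists used: gardiquimod 7.5 μM (TLR7), R848 15.9 μM (TLR8), ODN2006 5 nM (TLR9), added after 30 min room-temperature compound pre-treatment (0.05 nM–50 μM) of receptor-overexpressing HEK-Blue cells. SEAP reporter (NF-κB/AP-1 driven) read after 22 h at 37 °C; inhibition scaled between agonist+DMSO and reference-inhibitor wells.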

In the case of `COc1cc(-c2[nH]c3sc(C4CCC(NC5COC5)CC4)nc3c2C(C)C)cn2ncnc12` (single isomer, unassigned) [Example 65, N-(4-(6-isopropyl-5-(8-methoxy-[1,2,4]triazolo[1,5-a]pyridin-6-yl)-4H-pyrrolo[3,2-d]thiazol-2-yl)cyclohexyl)oxetan-3-amine], the “% inhibition of IFN-alpha” value ([1]; oral dose 0.001 mg/kg) is reported as 50%, the “% inhibition of IL6” value ([1]; oral dose 0.001 mg/kg) is reported as 21% and the “% inhibition of IFN-alpha” value ([1]; oral dose 0.005 mg/kg) is reported as 63%. For the same compound, the “% inhibition of IL6” value ([1]; oral dose 0.005 mg/kg) was 42%, the “% inhibition of IFN-alpha” value ([1]; oral dose 0.025 mg/kg) was 97% and the “% inhibition of IL6” value ([1]; oral dose 0.025 mg/kg) was 78%. The “% inhibition of IFN-alpha” value ([1]; oral dose 0.050 mg/kg) was 99% and the “% inhibition of IL6” value ([1]; oral dose 0.050 mg/kg) was 94%.

Compound `Cc1cc(-c2[nH]c3sc(N4CCN(C5CCC5)C[C@H]4C)nc3c2C(C)C)cn2ncnc12` [Example 362, (R)-2-(4-cyclobutyl-2-methylpiperazin-1-yl)-6-isopropyl-5-(8-methyl-[1,2,4]triazolo[1,5-a]pyridin-6-yl)-4H-pyrrolo[3,2-d]thiazole] has an IC50 [2] greater than 3130 nM and an IC50 [3] greater than 3.13 µM.

`Cc1c(-c2[nH]c3sc(N4CCNC[C@H]4C)nc3c2C(C)C)cn2ncnc2c1C` [Example 308, (R)-5-(7,8-dimethyl-[1,2,4]triazolo[1,5-a]pyridin-6-yl)-6-isopropyl-2-(2-methylpiperazin-1-yl)-4H-pyrrolo[3,2-d]thiazole, HCl] gave an IC50 [4] of 15.8 µM, an IC50 [2] of 0.09 nM and an IC50 [3] of 0.00018 µM.

Work on `COc1cc(-c2c(C(C)C)c3nc(C4CCN(CC(F)(F)F)CC4)sc3n2CC(F)(F)F)cn2ncnc12` [Example 9, 6-isopropyl-5-(8-methoxy-[1,2,4]triazolo[1,5-a]pyridin-6-yl)-4-(2,2,2-trifluoroethyl)-2-(1-(2,2,2-trifluoroethyl)piperidin-4-yl)-4H-pyrrolo[3,2-d]thiazole] yielded an IC50 [2] greater than 3130 nM and an IC50 [3] greater than 3.13 µM.
